Results as given in patent US4760136A, “Chartreusin derivatives and salts thereof” (Ishihara Sangyo Kaisha, Ltd., priority 1984, dated 1988).

What was measured:
P-388 leukemia cells = test: Antitumor activity: P-388 leukemia cells inoculated intraperitoneally, drug administered intravenously, BDF1 mice; format: in vivo; conditions: Mus musculus, P388, iv, BDF1 mice, P-388 i.p., read-out: T/C (%) of MST; for response vs control in vivo at 80 mg/kg: dose f: 80 mg/kg × 3, i.v. on days 1, 5 and 9; for response vs control in vivo at 60 mg/kg: dose e: 60 mg/kg × 3, i.v. on days 1, 5 and 9; for response vs control in vivo at 20 mg/kg: dose b: 20 mg/kg × 3, i.v. on days 1, 5 and 9; for response vs control in vivo at 40 mg/kg: dose c: 40 mg/kg × 3, i.v. on days 1, 5 and 9; for response vs control in vivo at 10 mg/kg: dose a: 10 mg/kg × 3, i.v. on days 1, 5 and 9
How it was run: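 Drug dosing was intravenous on the first, fifth and ninth days after intraperitoneal inoculation of P-388 leukemia cells (1×10^6 per mouse) into BDF1 mice. Vehicles were physiological saline alone, or saline with small amounts of sodium carboxymethyl cellulose or Tween-80.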

[1] = Acute toxicity, intravenous (once), ddY mice; format: in vivo; conditions: mouse, in vivo, iv, formulated per Preparation Example
Text: In Table 7 are shown acute toxicity values (LD50, mg/kg) in ddY mice in the case of intravenously administering (once) each of the compounds of this invention in the form of preparations shown in the Preparation Examples shown in Table 7.

Compound	response vs control in vivo at 80 mg/kg (P-388 leukemia cells)	LD50 [1]	response vs control in vivo at 60 mg/kg (P-388 leukemia cells)	response vs control in vivo at 20 mg/kg (P-388 leukemia cells)	response vs control in vivo at 40 mg/kg (P-388 leukemia cells)	response vs control in vivo at 10 mg/kg (P-388 leukemia cells)
CCC(C)C(=O)Oc1c2cccc(OC3OC(C)C4OC5(CCCCC5)OC4C3OC3OC(C)C(O)C(OC)C3O)c2c2oc(=O)c3c(C)ccc4oc(=O)c1c2c43 (stereo not drawn) [compound 241]	135%	≥ 80 mg/kg	–	–	–	–
COC1C(O)C(C)OC(OC2C(Oc3cccc4c(OC(=O)C5CC5)c5c(=O)oc6ccc(C)c7c(=O)oc(c34)c5c67)OC(C)C3OC(CCc4ccccc4)OC32)C1O (stereo not drawn) [compound 233]	–	≥ 60 mg/kg	165%	–	–	–
COC1C(O)C(C)OC(OC2C(Oc3cccc4c(OC(=O)C(C)OCc5ccccc5)c5c(=O)oc6ccc(C)c7c(=O)oc(c34)c5c67)OC(C)C3OC(c4ccccc4)OC32)C1O (stereo not drawn) [Compound No. 151]	–	≥ 40 mg/kg	–	155%	224%	–
COC1C(O)C(C)OC(OC2C(Oc3cccc4c(OC(=O)CC(C)NC(=O)C(F)(F)F)c5c(=O)oc6ccc(C)c7c(=O)oc(c34)c5c67)OC(C)C3OC(c4ccccc4Cl)OC32)C1O (stereo not drawn) [compound 94]	183%	≥ 80 mg/kg	–	–	–	–
COC1C(O)C(C)OC(OC2C(Oc3cccc4c(OC(=O)CCCCCCCNC(=O)C(F)(F)F)c5c(=O)oc6ccc(C)c7c(=O)oc(c34)c5c67)OC(C)C3OC(c4cccc(F)c4)OC32)C1O (stereo not drawn) [Compound No. 64]	210%	≥ 80 mg/kg	–	–	165%	–
COC1C(O)C(C)OC(OC2C(Oc3cccc4c(OC(=O)CCCl)c5c(=O)oc6ccc(C)c7c(=O)oc(c34)c5c67)OC(C)C3OC(C)(C)OC32)C1O (stereo not drawn) [Compound No. 157]	201%	≥ 80 mg/kg	–	–	153%	–
COC1C(O)C(C)OC(OC2C(Oc3cccc4c(OC(=O)CCNC(=O)CNC(=O)OCc5ccccc5)c5c(=O)oc6ccc(C)c7c(=O)oc(c34)c5c67)OC(C)C3OC(c4ccccc4)OC32)C1O (stereo not drawn) [compound 75]	–	≥ 40 mg/kg	–	153%	197%	–
CCCC(=O)Oc1c2cccc(OC3OC(C)C4OC(c5ccco5)OC4C3OC3OC(C)C(O)C(OC)C3O)c2c2oc(=O)c3c(C)ccc4oc(=O)c1c2c43 (stereo not drawn) [compound 228]	–	≥ 60 mg/kg	140%	–	–	–
COC1C(O)C(C)OC(OC2C(Oc3cccc4c(OC(=O)CCN5CCOCC5)c5c(=O)oc6ccc(C)c7c(=O)oc(c34)c5c67)OC(C)C3OC(c4ccccc4)OC32)C1O (stereo not drawn) [compound 32]	–	≥ 40 mg/kg	–	186%	–	146%
COC1C(O)C(C)OC(OC2C(Oc3cccc4c(OC(=O)C(CNC(=O)OCc5ccccc5)C(C)C)c5c(=O)oc6ccc(C)c7c(=O)oc(c34)c5c67)OC(C)C3OC(c4ccccc4)OC32)C1O (stereo not drawn) [compound 70]	–	≥ 40 mg/kg	–	135%	181%	–
COC1C(O)C(C)OC(OC2C(Oc3cccc4c(OC(=O)CCNC=O)c5c(=O)oc6ccc(C)c7c(=O)oc(c34)c5c67)OC(C)C3OC(c4cccc(Br)c4)OC32)C1O (stereo not drawn) [Compound No. 54]	208%	≥ 80 mg/kg	–	–	144%	–
COC1C(O)C(C)OC(OC2C(Oc3cccc4c(OC(=O)CCCNC(=O)OCc5ccccc5)c5c(=O)oc6ccc(C)c7c(=O)oc(c34)c5c67)OC(C)C3OC(C)(C)OC32)C1O (stereo not drawn) [compound 109]	–	≥ 100 mg/kg	145%	–	–	–
COC1C(O)C(C)OC(OC2C(Oc3cccc4c(OC(=O)CCCNC(=O)C(F)(F)F)c5c(=O)oc6ccc(C)c7c(=O)oc(c34)c5c67)OC(C)C3OC(c4ccccc4)OC32)C1O (stereo not drawn) [Compound No. 24]	–	≥ 40 mg/kg	–	161%	223%	–
COC1C(O)C(C)OC(OC2C(Oc3cccc4c(OC(=O)C5CC5)c5c(=O)oc6ccc(C)c7c(=O)oc(c34)c5c67)OC(C)C3OC(c4ccccc4)OC32)C1O (stereo not drawn) [compound 232]	–	≥ 40 mg/kg	–	–	–	146%
CO[C@H]1[C@@H](O)[C@@H](C)O[C@H](O[C@H]2[C@H](Oc3cccc4c(OC(=O)c5ccc(Cl)cc5)c5c(=O)oc6ccc(C)c7c(=O)oc(c34)c5c67)O[C@H](C)[C@@H]3OC(C)(C)O[C@@H]32)[C@@H]1O [Compound No. 185]	192%	≥ 80 mg/kg	–	–	142%	–
